Measured values from patent US8993041B2, “Taste masked active pharmaceutical powder compositions and processes for making them” (New Jersey Institute of Technology, priority 2012, dated 2015).

Key:
[1] = Angle of repose (AoR/AOR) of powder; type: physicochemical
Source text: Both of these ibuprofen powders could not be fluidized sufficiently prior to coating, yet both of the coated ibuprofen particles were well fluidized after dry coating.
The operating conditions for coating step 2 may be established by a skilled person giving consideration, for example, to particle agglomeration and providing reduced angle of repose (AOR) values for the coated API powder. The degree of particle agglomeration may be determined by measuring the size of the coated particles in SEM images. The degree of agglomeration may also be estimated using the dispersion pressure titration in the Rodos/Helos system (Rodos and Helos, Sympatec, Lawrenceville, N.J., USA). A discussion of the pressure titration may be found in Han, X., Ghoroi, C., To, D., Chen, Y., Davë, R., “Simultaneous micronization and surface modification for improvement of flow and dissolution of drug particles (2011).” International Journal of Pharmaceutics, vol. 415, pp. 185-195, which is incorporated in its entirety by reference. The AOR may be measured using the procedure of ASTM D6393-99, “Bulk Solids Characterization by CARR Indices.” For example, when the Comil is used, the impeller speed may be optimized to reduce the agglomeration (FIG. 3) as higher impeller speed […] agglomerate size for the silica coated API powders.
M5P hydrophilic silica has a particle size of 20 nm and is manufactured by Cabot

[2] = Flow function coefficient (FFC), shear cell of FT 4 tester; type: physicochemical
[3] = finer ibuprofen powder, median size about 41 micron

- AoR [1, 3]: about 58 degrees
- AOR ([1]; flow properties of ibuprofen before and after dry coating with silica): 55 °
- AoR ([1]; ibuprofen median particle size about 74 micron, Hosokawa Powder Tester, ASTM D6393-08): about 55 degrees
- FFC [2, 3]: about 2.8
- FFC ([2]; ibuprofen median particle size about 74 micron, pre-consolidation of 3 kPa): about 5
Structure (SMILES): CC(C)Cc1ccc(C(C)C(=O)O)cc1 (centres unmarked) [ibuprofen]
